Here are results for eleven sequences from patent publication US8883165B2, “Modified peptide vaccine derived from influenza M2” (The Chemo-Sero-Therapeutic Research Institute, priority 2009, dated 2014).

Test [1] relates to M2e. More on the design: species or system BALB/c mice. The conditions noted are these: mouse, in vivo, sc.
Test [2] relates to M2e. More on the design: species or system BALB/c mice. The conditions noted are these: mouse, in vivo.
Test [3] relates to Influenza virus (A/PR8/8/34 strain, H1N1). It is filed as in vivo, BALB/c mice. The conditions noted are these: mouse, in vivo.
Test [4] concerns M2e. More on the design: species or system BALB/c mice. The conditions noted are these: mouse, in vivo. This is another data set of the same source.

Values joined by “and” are separate entries in the source; they are usually repeats but may differ in a detail not shown here. Equal values may be shown once. “Also recorded” adds a separate entry of the source.

SLLTEVETPIRNEWGCRCNCDCSCSD [M2eC212223]: in the test with M2e [1], the “anti-M2e antibody titer, comparison in words” value is reported as “higher antibody titer than that of M2e”. In addition, the “anti-M2e antibody titer just before challenge” value with M2e [2] is recorded as “could induce a high anti-M2e antibody titer”. Take “SLLTEVETPIRNEWCGCRCNCDCSCSCD [M2eC1621222324]”: the “anti-M2e antibody titer, comparison in words” value in the test on M2e [1] is “higher than that of M2eC162122”.

On to SLLTEVETPIRNEWCGCRCNCDSSD [M2eC1621], for which, in the test with M2e [1], the “anti-M2e antibody titer, comparison in words” value is listed as “increased anti-M2e antibody titer than M2eC21”. Turning to “SLLTEVETPIRNEWGCRCNCDCSCSCD [M2eC21222324]”, the “anti-M2e antibody titer, comparison in words” value in the test with M2e [1] was “higher than that of M2eC212223”. Turning to SLLTEVETPIRNEWGCRCNCCCDSSD [M2eC212121], the “anti-M2e antibody titer, comparison in words” value in the test on M2e [1] is recorded as “induced a high anti-M2e antibody titer”.

Regarding SLLTEVETPIRNEWCGCRCNCDCSSD [M2eC162122], the “anti-M2e antibody titer, comparison in words” value in the test on M2e [1] is listed as “higher antibody titer than that of M2e”. As for SLLTEVETPIRNEWGCRCNCDCSSD [M2eC2122], the “anti-M2e antibody titer, comparison in words” value in the test on M2e [1] is recorded as “increased anti-M2e antibody titer than M2eC21”. Still for that read-out and setting: next, “SLLTEVETPIRNEWCGCRCNCDCSCSD [M2eC16212223]”: “higher than that of M2eC162122”. As for “SLLTEVETPTRSEWECRCSCDCSCSD [swM2eC212223]”, in test [3], the Survival rate is 9/9 and 7/8. Moreover, the “anti-M2e antibody titer immediately before challenge” value with M2e [4] is “the highest; also recorded: high anti-M2e antibody titer”. In the case of SLLTEVETPIRNEWGCRCNCDSCSD [M2eC2123], the “anti-M2e antibody titer, comparison in words” value in the test with M2e [1] is “increased anti-M2e antibody titer than M2eC21”. For the sequence SLLTEVETPIRNECWCGCRCNCDSSD [M2eC151621], in the test with M2e [1], the “anti-M2e antibody titer, comparison in words” value is “antibody titer comparable to M2e”.
